Active and inactive are the calls of the source. The rule behind the calls is not given here.
How the values were obtained:
[1] = Toxicity in BALB/c mouse xenografted with human NCI-H1975 cells assessed as change in body weight pretreated with compound at 10 mg/kg, ip administered once daily for 24 days and measured every 3 days […]; format: organism-based; settings: in vivo, 576 h, time 24 day
NCI-H1299 [2] = experiment: Induction of apoptosis in human NCI-H1299 cells assessed as viable cells at 1.0 uM incubated for 48 hrs by AnnexinV-FITC/propidium iodide staining based flow cytometry analysis (reference value: 98.05 % ); format: functional; settings: read-out: Activity
NCI-H1299 [3] = experiment: Induction of apoptosis in human NCI-H1299 cells assessed as necrotic cells at 1.0 uM incubated for 48 hrs by AnnexinV-FITC/propidium iodide staining based flow cytometry analysis (reference value: 0.24 % ); format: functional
NCI-H1299 [4] = experiment: Induction of apoptosis in human NCI-H1299 cells assessed as viable cells at 0.1 uM incubated for 48 hrs by AnnexinV-FITC/propidium iodide staining based flow cytometry analysis (reference value: 98.05 % ); format: functional; settings: read-out: Activity
NCI-H1975 [5] = experiment: Induction of apoptosis in human NCI-H1975 cells assessed as necrotic cells at 1.0 uM incubated for 48 hrs by AnnexinV-FITC/propidium iodide staining based flow cytometry analysis (reference value: 3.28 % ); format: functional
[6] = tested on: Epidermal growth factor receptor (Homo sapiens), P00533 [L858R,T790M]; experiment: Inhibition of EGFR L858R/T790M mutant phosphorylation in human NCI-H1975 cells at 1 uM measured after 48 hrs by Western blot assay; format: cell-based
Chain of Epidermal growth factor receptor (Homo sapiens), P00533 [L858R,T790M] (P00533 whole entry T790M/L858R, looked up): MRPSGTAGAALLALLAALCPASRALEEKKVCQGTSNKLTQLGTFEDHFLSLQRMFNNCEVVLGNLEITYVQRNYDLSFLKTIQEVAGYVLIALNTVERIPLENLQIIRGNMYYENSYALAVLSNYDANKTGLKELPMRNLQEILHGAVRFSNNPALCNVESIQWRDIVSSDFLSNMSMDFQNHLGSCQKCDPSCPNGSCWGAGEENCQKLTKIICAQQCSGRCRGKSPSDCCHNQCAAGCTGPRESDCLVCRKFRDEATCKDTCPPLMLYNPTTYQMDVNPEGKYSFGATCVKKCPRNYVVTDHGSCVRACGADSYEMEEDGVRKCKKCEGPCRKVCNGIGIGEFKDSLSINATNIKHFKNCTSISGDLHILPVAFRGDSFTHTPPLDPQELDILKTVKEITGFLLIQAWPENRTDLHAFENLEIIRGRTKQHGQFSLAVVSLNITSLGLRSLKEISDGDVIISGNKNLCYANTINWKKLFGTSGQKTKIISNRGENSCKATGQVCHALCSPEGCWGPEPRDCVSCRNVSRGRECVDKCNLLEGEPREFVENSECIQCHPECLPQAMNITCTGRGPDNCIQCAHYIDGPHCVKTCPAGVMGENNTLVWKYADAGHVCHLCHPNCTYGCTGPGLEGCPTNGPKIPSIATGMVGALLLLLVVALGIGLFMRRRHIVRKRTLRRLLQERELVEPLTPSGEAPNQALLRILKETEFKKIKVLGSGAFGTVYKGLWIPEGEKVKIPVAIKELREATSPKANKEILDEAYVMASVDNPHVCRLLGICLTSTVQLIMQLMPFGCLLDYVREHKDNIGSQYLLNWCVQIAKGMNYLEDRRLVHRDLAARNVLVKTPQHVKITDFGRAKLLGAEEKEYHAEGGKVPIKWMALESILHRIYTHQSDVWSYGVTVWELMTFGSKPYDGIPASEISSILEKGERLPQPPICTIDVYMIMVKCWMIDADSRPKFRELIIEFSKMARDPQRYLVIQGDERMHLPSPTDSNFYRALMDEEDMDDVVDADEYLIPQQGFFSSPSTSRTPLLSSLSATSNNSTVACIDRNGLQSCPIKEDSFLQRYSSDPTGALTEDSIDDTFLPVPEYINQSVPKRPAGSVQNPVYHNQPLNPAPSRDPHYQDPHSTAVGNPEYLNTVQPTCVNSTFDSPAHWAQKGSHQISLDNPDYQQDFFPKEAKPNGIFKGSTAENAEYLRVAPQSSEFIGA

HCC827 = experiment: Antiproliferative activity against human NCI-HCC827 cells expressing EGFR del19 incubated for 72 hrs by CCK-8 assay; format: functional, cell-based; settings: HCC827, 72 h
NCI-H1975 [7] = experiment: Induction of apoptosis in human NCI-H1975 cells assessed as viable cells at 0.1 uM incubated for 48 hrs by AnnexinV-FITC/propidium iodide staining based flow cytometry analysis (reference value: 96.2 % ); format: functional; settings: read-out: Activity
NCI-H1299 [8] = experiment: Induction of apoptosis in human NCI-H1299 cells assessed as necrotic cells at 0.1 uM incubated for 48 hrs by AnnexinV-FITC/propidium iodide staining based flow cytometry analysis (reference value: 0.24 % ); format: functional
[9] = Toxicity in BALB/c mouse xenografted with human NCI-H1299 cells assessed as change in body weight pretreated with compound at 10 mg/kg, ip administered once daily for 24 days and measured every 3 days […]; format: organism-based; settings: in vivo, 576 h, time 24 day
[10] = AUC (0 to t) in Sprague-Dawley rat at 1 mg/kg, iv measured upto 24 hrs by LC-MS/MS analysis; format: ADME, organism-based; parameters: time < 24 hrs, dose 1 mg/kg, route iv; settings: in vivo
[11] = biological target: Protein cereblon/Epidermal growth factor receptor (Homo sapiens) (UniProt P00533+Q96SW2); experiment: Protac activity at CRBN/EGFR in human NCI-H1975 cells assessed as induction of EGFR degradation pretreated for 12 hrs followed by compound washout and replaced with fresh medium for 1 hr and measured after 48 hrs post compound washout by Western blot analysis; format: cell-based
Chain of Protein cereblon/Epidermal growth factor receptor (Homo sapiens) (P00533 25-1210 limits assumed): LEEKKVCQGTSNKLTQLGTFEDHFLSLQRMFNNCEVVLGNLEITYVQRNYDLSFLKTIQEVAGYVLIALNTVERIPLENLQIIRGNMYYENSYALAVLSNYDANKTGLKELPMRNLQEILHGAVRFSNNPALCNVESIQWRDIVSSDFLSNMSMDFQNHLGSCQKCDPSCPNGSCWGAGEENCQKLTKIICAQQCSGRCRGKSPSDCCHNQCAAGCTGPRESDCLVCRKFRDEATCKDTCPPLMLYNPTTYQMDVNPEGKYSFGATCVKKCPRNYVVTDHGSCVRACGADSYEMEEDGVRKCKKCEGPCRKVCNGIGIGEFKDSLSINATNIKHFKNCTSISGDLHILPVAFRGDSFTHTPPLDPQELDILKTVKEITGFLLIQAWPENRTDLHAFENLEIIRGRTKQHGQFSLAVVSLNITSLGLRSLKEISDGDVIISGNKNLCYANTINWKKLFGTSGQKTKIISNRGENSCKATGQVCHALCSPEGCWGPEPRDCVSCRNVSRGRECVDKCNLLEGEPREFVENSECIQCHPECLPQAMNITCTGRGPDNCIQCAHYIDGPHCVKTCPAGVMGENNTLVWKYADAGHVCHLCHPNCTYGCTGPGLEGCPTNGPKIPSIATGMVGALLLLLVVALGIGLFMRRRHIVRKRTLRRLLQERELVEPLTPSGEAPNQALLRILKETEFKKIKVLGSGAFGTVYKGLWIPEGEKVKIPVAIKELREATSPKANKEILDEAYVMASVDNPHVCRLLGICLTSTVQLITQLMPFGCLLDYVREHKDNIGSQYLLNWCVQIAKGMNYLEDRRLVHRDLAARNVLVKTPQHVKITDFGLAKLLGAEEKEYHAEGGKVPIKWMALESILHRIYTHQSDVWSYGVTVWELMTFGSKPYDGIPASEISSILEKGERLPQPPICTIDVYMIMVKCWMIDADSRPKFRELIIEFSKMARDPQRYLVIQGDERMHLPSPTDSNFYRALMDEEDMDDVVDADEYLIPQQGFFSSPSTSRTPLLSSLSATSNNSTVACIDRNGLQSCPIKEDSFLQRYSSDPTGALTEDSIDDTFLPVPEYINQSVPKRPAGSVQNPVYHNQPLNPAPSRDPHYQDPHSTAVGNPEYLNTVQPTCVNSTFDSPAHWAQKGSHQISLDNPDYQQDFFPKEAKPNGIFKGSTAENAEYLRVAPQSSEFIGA
Chain of Protein cereblon/Epidermal growth factor receptor (Homo sapiens) (Q96SW2 whole entry partner): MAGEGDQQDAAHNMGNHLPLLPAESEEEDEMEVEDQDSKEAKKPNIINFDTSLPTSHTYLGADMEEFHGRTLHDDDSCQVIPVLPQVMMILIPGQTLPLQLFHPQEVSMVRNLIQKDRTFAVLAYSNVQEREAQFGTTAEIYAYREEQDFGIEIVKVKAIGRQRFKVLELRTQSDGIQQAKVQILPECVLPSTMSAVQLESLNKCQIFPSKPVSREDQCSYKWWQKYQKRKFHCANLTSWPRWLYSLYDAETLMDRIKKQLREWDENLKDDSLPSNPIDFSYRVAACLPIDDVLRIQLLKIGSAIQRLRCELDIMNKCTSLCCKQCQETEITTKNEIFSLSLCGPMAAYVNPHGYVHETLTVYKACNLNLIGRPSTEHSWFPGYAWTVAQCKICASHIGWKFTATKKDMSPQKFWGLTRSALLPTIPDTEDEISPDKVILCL

SMILES | Activity [1] | viability at 1 µM (NCI-H1299 [2]) [%] | Activity (NCI-H1299 [3]) [%] | viability at 0.1 µM (NCI-H1299 [4]) [%] | Activity (NCI-H1975 [5]) [%] | inhibition [6] | IC50 (HCC827) [µM] | viability at 0.1 µM (NCI-H1975 [7]) [%] | Activity (NCI-H1299 [8]) [%] | Activity [9] | AUC(0-t) at 24 h [10] [µg·h/mL] | Activity [11]
C#CCN(CCC(=O)Nc1cccc2c1CN(C1CCC(=O)NC1=O)C2=O)CCN(C)c1cc(OC)c(Nc2nccc(-c3cn(C)c4ccccc34)n2)cc1NC(=O)C=C (stereo not drawn) | Non-Toxic | 97.5 | 0.25 | 97.7 | 14.3 | Active | 1.21 | 90.8 | 0.39 | Non-Toxic | 0.46 | –
C#CCN(CCCC(=O)Nc1cccc2c1CN(C1CCC(=O)NC1=O)C2=O)CCN(C)c1cc(OC)c(Nc2nccc(-c3cn(C)c4ccccc34)n2)cc1NC(=O)C=C (stereo not drawn) | Non-Toxic | 97.8 | 0.37 | 98 | 15.2 | Active | 1.12 | 85.6 | 0.48 | Non-Toxic | 0.483 | Active
